According to PubChem BioAssay (NCI):
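Results reflect a 48-hour exposure of cells in 96-well plates to compound at five concentrations. TGI is the concentration that stops growth completely.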

Tests used:
Assay in all cases: growth of human tumour cells (NCI), 48 h
786-0 renal = test system: 786-0 renal
A498 renal = test system: A498 renal
A549 NSCLC = test system: A549 NSCLC
ACHN renal = test system: ACHN renal
BT-549 breast = test system: BT-549 breast
CAKI-1 renal = test system: CAKI-1 renal
CCRF-CEM leukemia = test system: CCRF-CEM leukemia
COLO 205 colon = test system: COLO 205 colon
DU-145 prostate = test system: DU-145 prostate
EKVX NSCLC = test system: EKVX NSCLC
HCT-116 colon = test system: HCT-116 colon
HCT-15 colon = test system: HCT-15 colon
HL-60(TB) leukemia = test system: HL-60(TB) leukemia
HOP-62 NSCLC = test system: HOP-62 NSCLC
HOP-92 NSCLC = test system: HOP-92 NSCLC
HT29 colon = test system: HT29 colon
IGROV1 ovarian = test system: IGROV1 ovarian
K-562 leukemia = test system: K-562 leukemia
LOX IMVI melanoma = test system: LOX IMVI melanoma
M14 melanoma = test system: M14 melanoma
MALME-3M melanoma = test system: MALME-3M melanoma
MCF7 breast = test system: MCF7 breast
MDA-MB-231 breast = test system: MDA-MB-231 breast
MDA-MB-435 = test system: MDA-MB-435
MDA-N = test system: MDA-N
MOLT-4 leukemia = test system: MOLT-4 leukemia
NCI-H226 lung = test system: NCI-H226 lung
NCI-H23 lung = test system: NCI-H23 lung
NCI-H522 lung = test system: NCI-H522 lung
NCI/ADR-RES ovarian = test system: NCI/ADR-RES ovarian
OVCAR-3 ovarian = test system: OVCAR-3 ovarian
OVCAR-4 ovarian = test system: OVCAR-4 ovarian
OVCAR-5 ovarian = test system: OVCAR-5 ovarian
OVCAR-8 ovarian = test system: OVCAR-8 ovarian
PC-3 prostate = test system: PC-3 prostate
RPMI-8226 leukemia = test system: RPMI-8226 leukemia
RXF 393 renal = test system: RXF 393 renal
SF-268 CNS = test system: SF-268 CNS
SF-295 CNS = test system: SF-295 CNS
SF-539 CNS = test system: SF-539 CNS
SK-MEL-2 melanoma = test system: SK-MEL-2 melanoma
SK-MEL-28 melanoma = test system: SK-MEL-28 melanoma
SK-MEL-5 melanoma = test system: SK-MEL-5 melanoma
SK-OV-3 ovarian = test system: SK-OV-3 ovarian
SN12C renal = test system: SN12C renal
SNB-19 CNS = test system: SNB-19 CNS
SNB-75 CNS = test system: SNB-75 CNS
SR leukemia = test system: SR leukemia
T-47D breast = test system: T-47D breast
TK-10 renal = test system: TK-10 renal
U251 CNS = test system: U251 CNS
UACC-257 melanoma = test system: UACC-257 melanoma
UACC-62 melanoma = test system: UACC-62 melanoma
UO-31 renal = test system: UO-31 renal
HCC-2998 colon = test system: HCC-2998 colon
HS 578T breast = test system: HS 578T breast
KM12 colon = test system: KM12 colon
NCI-H460 lung = test system: NCI-H460 lung
SW-620 colon = test system: SW-620 colon

## CC(=O)N(C)c1ccc(N=CN(C)C)cc1
786-0 renal
  TGI: > 100 µM
A498 renal
  TGI: > 100 µM
A549 NSCLC
  TGI: > 100 µM
ACHN renal
  TGI: > 100 µM
BT-549 breast
  TGI: > 100 µM
CAKI-1 renal
  TGI: > 100 µM
CCRF-CEM leukemia
  TGI: > 100 µM
COLO 205 colon
  TGI: > 100 µM
DU-145 prostate
  TGI: > 100 µM
EKVX NSCLC
  TGI: > 100 µM
HCT-116 colon
  TGI: > 100 µM
HCT-15 colon
  TGI: > 100 µM
HL-60(TB) leukemia
  TGI: > 100 µM
HOP-62 NSCLC
  TGI: > 100 µM
HOP-92 NSCLC
  TGI: > 100 µM
HT29 colon
  TGI: > 100 µM
IGROV1 ovarian
  TGI: > 100 µM
K-562 leukemia
  TGI: > 100 µM
LOX IMVI melanoma
  TGI: > 100 µM
M14 melanoma
  TGI: > 100 µM
MALME-3M melanoma
  TGI: > 100 µM
MCF7 breast
  TGI: > 100 µM
MDA-MB-231 breast
  TGI: > 100 µM
MDA-MB-435
  TGI: > 100 µM
MDA-N
  TGI: > 100 µM
MOLT-4 leukemia
  TGI: > 100 µM
NCI-H226 lung
  TGI: > 100 µM
NCI-H23 lung
  TGI: > 100 µM
NCI-H522 lung
  TGI: > 100 µM
NCI/ADR-RES ovarian
  TGI: > 100 µM
OVCAR-3 ovarian
  TGI: > 100 µM
OVCAR-4 ovarian
  TGI: > 100 µM
OVCAR-5 ovarian
  TGI: > 100 µM
OVCAR-8 ovarian
  TGI: > 100 µM
PC-3 prostate
  TGI: > 100 µM
RPMI-8226 leukemia
  TGI: > 100 µM
RXF 393 renal
  TGI: > 100 µM
SF-268 CNS
  TGI: > 100 µM
SF-295 CNS
  TGI: > 100 µM
SF-539 CNS
  TGI: > 100 µM
SK-MEL-2 melanoma
  TGI: > 100 µM
SK-MEL-28 melanoma
  TGI: > 100 µM
SK-MEL-5 melanoma
  TGI: > 100 µM
SK-OV-3 ovarian
  TGI: > 100 µM
SN12C renal
  TGI: > 100 µM
SNB-19 CNS
  TGI: > 100 µM
SNB-75 CNS
  TGI: > 100 µM
SR leukemia
  TGI: > 100 µM
T-47D breast
  TGI: > 100 µM
TK-10 renal
  TGI: > 100 µM
U251 CNS
  TGI: > 100 µM
UACC-257 melanoma
  TGI: > 100 µM
UACC-62 melanoma
  TGI: > 100 µM
UO-31 renal
  TGI: > 100 µM

## O=C1C(C(O)(C(F)(F)Cl)C(F)(F)Cl)CCCC1C(O)(C(F)(F)Cl)C(F)(F)Cl (centres undefined)
786-0 renal
  TGI: > 10 µM
A498 renal
  TGI: > 10 µM
A549 NSCLC
  TGI: > 10 µM
ACHN renal
  TGI: > 10 µM
BT-549 breast
  TGI: > 10 µM
CAKI-1 renal
  TGI: > 10 µM
COLO 205 colon
  TGI: > 10 µM
DU-145 prostate
  TGI: > 10 µM
EKVX NSCLC
  TGI: > 10 µM
HCC-2998 colon
  TGI: > 10 µM
HCT-116 colon
  TGI: > 10 µM
HCT-15 colon
  TGI: > 10 µM
HOP-62 NSCLC
  TGI: > 10 µM
HOP-92 NSCLC
  TGI: > 10 µM
HS 578T breast
  TGI: > 10 µM
HT29 colon
  TGI: > 10 µM
IGROV1 ovarian
  TGI: > 10 µM
KM12 colon
  TGI: > 10 µM
LOX IMVI melanoma
  TGI: > 10 µM
M14 melanoma
  TGI: > 10 µM
MALME-3M melanoma
  TGI: > 10 µM
MCF7 breast
  TGI: > 10 µM
MDA-MB-231 breast
  TGI: > 10 µM
MDA-MB-435
  TGI: > 10 µM
MDA-N
  TGI: > 10 µM
NCI-H226 lung
  TGI: > 10 µM
NCI-H23 lung
  TGI: > 10 µM
NCI-H460 lung
  TGI: > 10 µM
NCI-H522 lung
  TGI: > 10 µM
NCI/ADR-RES ovarian
  TGI: > 10 µM
OVCAR-3 ovarian
  TGI: > 10 µM
OVCAR-4 ovarian
  TGI: > 10 µM
OVCAR-5 ovarian
  TGI: > 10 µM
OVCAR-8 ovarian
  TGI: > 10 µM
PC-3 prostate
  TGI: > 10 µM
RXF 393 renal
  TGI: > 10 µM
SF-268 CNS
  TGI: > 10 µM
SF-295 CNS
  TGI: > 10 µM
SF-539 CNS
  TGI: > 10 µM
SK-MEL-2 melanoma
  TGI: > 10 µM
SK-MEL-28 melanoma
  TGI: > 10 µM
SK-MEL-5 melanoma
  TGI: > 10 µM
SK-OV-3 ovarian
  TGI: > 10 µM
SNB-19 CNS
  TGI: > 10 µM
SW-620 colon
  TGI: > 10 µM
T-47D breast
  TGI: > 10 µM
TK-10 renal
  TGI: > 10 µM
U251 CNS
  TGI: > 10 µM
UACC-257 melanoma
  TGI: > 10 µM
UACC-62 melanoma
  TGI: > 10 µM
